Results taken from PMC12562640, “Investigating Amphoteric 3,4′-Biscoumarin-Based ortho-[(Dialkylamino)methyl]phenols as Dual MAO and ChE Inhibitors” (International Journal of Molecular Sciences, 2025).
Converted amounts (≈) assume the structure as drawn. “And” between values parts separate entries of the source, which are not always exact repeats. Equal entries are not always repeated. Where two headings read alike, the source gives them in different places.

Assays:
human MAO-A [1] = molecular target: T1, human MAO-A (Homo sapiens, UniProt P21397); test: Inhibition kinetics and time course of MAO-A inhibition; assay type: biochemical; details: for reversibility of MAO-A inhibition: time course, absorbance of 4-hydroxyquinoline at 316 nm, inhibitor close to IC50
T1 construct: purchased Sigma Aldrich; host or cells: insect cells infected with baculovirus (microsomes)
T1 sequence (P21397 1-527): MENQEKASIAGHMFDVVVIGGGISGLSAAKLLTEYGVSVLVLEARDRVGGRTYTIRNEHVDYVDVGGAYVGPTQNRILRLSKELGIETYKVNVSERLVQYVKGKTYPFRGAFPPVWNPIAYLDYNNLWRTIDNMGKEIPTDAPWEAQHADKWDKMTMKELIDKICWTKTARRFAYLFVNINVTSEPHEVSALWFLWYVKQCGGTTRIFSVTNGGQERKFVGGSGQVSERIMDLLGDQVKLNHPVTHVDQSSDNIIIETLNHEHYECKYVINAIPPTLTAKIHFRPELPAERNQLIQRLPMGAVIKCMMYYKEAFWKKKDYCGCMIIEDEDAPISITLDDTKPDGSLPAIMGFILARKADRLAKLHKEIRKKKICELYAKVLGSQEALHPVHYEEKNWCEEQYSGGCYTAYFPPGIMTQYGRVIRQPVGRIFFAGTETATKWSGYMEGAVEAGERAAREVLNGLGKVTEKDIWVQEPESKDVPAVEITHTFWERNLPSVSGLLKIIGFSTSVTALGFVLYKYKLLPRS
Excerpt: For the sake of clarity, the position of the Mannich base (-CH2NR2) on the main coumarin core will be indicated as C8, whereas the positions of Cl or Br and OMe on the 4-coumarin-3-yl moiety will be indicated as C6′ and C8′.
Time courses of MAO-A inhibition by 2b and 5b, using a spectrophotometric assay measuring the absorbance of 4-
(1 picture or pasted object on this page, not shown here)

human MAO-A [2] = molecular target: T1, human MAO-A; test: biochemical; assay type: biochemical; details: for inhibition at 10 µM / huMAO-A % inhibition: at 10 µM concentration, mean ± SD
Protocol: (§1) The inhibition assays of human monoamine oxidases were conducted using a fluorescence-based method with kynuramine as a non-selective substrate for each isoform, MAO-A/B [44, 45, 46]. Recombinant human MAO-A and MAO-B (microsomes from insect cells infected with baculovirus; Sigma Aldrich, St. Louis, MO, USA) (Merk Life Science S.r.l., Milan, Italy) were used. The measurements were performed in triplicate in black round-bottom polystyrene 96-well plates (Greiner Bio-One, Kremsmünster, Austria). […] In the MAO inhibition assays, all compounds were initially screened at a concentration of 10 µM. Each of them was preincubated at 37 °C for 20 min with 50 µM kynuramine in a phosphate buffer (PBS, 0.1 M, pH 8.0), adjusted to 0.39 osmolarity with KCl. After adding recombinant human MAO-A/B (250 U/mg and 59 U/mg, respectively) and incubating for another 30 min, NaOH was added. The fluorescence was measured at excitation/emission wavelengths of 310/400 nm. […] The IC50 is reported as the mean ± SD of three independent experiments, each performed in duplicate.

human huMAO-B = molecular target: T2, human huMAO-B (Homo sapiens, UniProt P27338); test: biochemical; assay type: biochemical; details: for inhibition at 10 µM / huMAO-B % inhibition: at 10 µM concentration, mean ± SD
T2 construct: purchased Sigma Aldrich; host or cells: insect cells infected with baculovirus (microsomes)
T2 sequence (P27338 1-520): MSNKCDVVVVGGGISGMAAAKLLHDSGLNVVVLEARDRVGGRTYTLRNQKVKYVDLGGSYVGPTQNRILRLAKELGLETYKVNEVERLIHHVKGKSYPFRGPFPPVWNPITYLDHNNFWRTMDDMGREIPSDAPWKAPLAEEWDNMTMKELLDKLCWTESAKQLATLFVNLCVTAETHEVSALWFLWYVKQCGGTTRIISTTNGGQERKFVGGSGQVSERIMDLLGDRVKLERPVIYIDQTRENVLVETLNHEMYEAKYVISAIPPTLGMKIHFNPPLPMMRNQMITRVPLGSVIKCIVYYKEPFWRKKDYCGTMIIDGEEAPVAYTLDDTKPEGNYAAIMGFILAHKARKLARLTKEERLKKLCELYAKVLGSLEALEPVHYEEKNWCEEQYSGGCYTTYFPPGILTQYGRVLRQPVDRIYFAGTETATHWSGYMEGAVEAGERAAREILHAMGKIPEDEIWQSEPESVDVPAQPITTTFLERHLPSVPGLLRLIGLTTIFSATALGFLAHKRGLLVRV
Protocol: as §1

[3] = Lipophilicity by RP-HPLC (log k'w); assay type: physicochemical; details: C18, extrapolated to 100% water mobile phase
Protocol: The lipophilicity of the five compounds in Table 4 was assessed by calculation and experimental approaches. As a calculated lipophilicity parameter (log Pcalc), we took from the SwissADME free website (http://www.swissadme.ch) the ‘Consensus Log Po/w’, that is, the arithmetic mean of octanol/water log Ps calculated by five methods (iLOGP, XLOGP3, WLOGP, MLOGP, and SILICOS-IT).
The lipophilicity parameters were determined by an RP-HPLC technique. In short, methanolic solutions of the examined compounds (1 mg·mL^−1) were analyzed by the Agilent 1260 infinite HPLC system (Agilent Technologies, Milan, Italy) equipped with a diode array detector (DAD), using a Phenomenex C18-column (Kinetex 5 μ, 100 Å, 150 × 3 mm) as the stationary phase and MeOH/water buffer mobile phases with different v/v composition (i.e., mobile phases containing 0.05 increments of MeOH volume fractions in 10 mM ammonium formate buffer at pH 4.5; φMeOH ranging between 0.70 and 0.20). The chromatographic measurements were carried out at 25 ± 1 °C, flow rate of 0.5 mL·min^−1, and detection at λ 330 nm. The log of capacity factors of each compound at different mobile phase compositions was calculated (log k′ = log (tR − t0)/t0, where tR represents the retention time of the solute and t0 is the column dead time). For each compound, the equation of the linear relationship between log k′ and φMeOH (R^2 > 0.991) on at least five datapoints, each from duplicate, was derived by regression analysis and the intercept at the y-axis (i.e., φMeOH = 0) calculated as the lipophilicity parameter log k′w.

horse serum eqBChE = molecular target: T3, horse serum eqBChE (Equus caballus, UniProt P81908); test: biochemical; assay type: biochemical; details: for inhibition at 10 µM / eqBChE % inhibition / eqBChE inhibition class: at 10 µM concentration
T3 construct: Acetylcholinesterase from electric eel and butyrylcholinesterase from equine serum (Sigma Aldrich) were employed; purchased Sigma Aldrich; host or cells: equine serum
Protocol: (§2) Cholinesterase inhibition assays were carried out using the Ellman spectrophotometric method, modified for a 96-well plate format. Acetylcholinesterase from electric eel and butyrylcholinesterase from equine serum (Sigma Aldrich) were employed. The measurements were performed in triplicate using clear, flat-bottom polystyrene plates (Greiner Bio-One).

[4] = Kinetic solubility in aqueous buffers (RP-HPLC); assay type: physicochemical; details: for solubility at 2 h: PBS buffer, 25 °C, pH 7.4, aqueous buffer, kinetic from dmso stock, PBS (50 mM, pH 7.4, 0.15 M KCl) at 25 ± 1 °C, n = 3, read-out: Solubility Exp.
Protocol: Water solubility and lipophilicity parameters were measured following previously reported methods. […] The mixture was then separated by centrifugation at 2500 rpm for 3 min. Immediately after filtration, 100 µL of the filtrate was mixed with an equal volume of a 1:1 (v/v) DMSO and PBS (50 mM, pH 7.4, KCl 0.15 M) or HCl (0.01 M, pH 2, KCl 0.15 M) solution to prevent precipitation from the saturated solution and subsequently analyzed by HPLC. The peak area was compared to a calibration curve of the tested compound in MeOH. The analytical parameters were set as follows. Mobile phase: MeOH/water pH 2.8 (acetic acid 0.5% v/v) at different percentages depending on the retention time of each test compound; stationary phase: Phenomenex, Kinetex 5 µ, C8, (150 × 3 mm); flux: […]; injection: 2 µL; λ 330 nm. The analyses were performed on the Agilent HPLC 1260 Infinity Series Integrated System (Agilent Technologies, Milan, Italy).

electric eel eeAChE = molecular target: T4, electric eel eeAChE (Electrophorus electricus, UniProt O42275); test: biochemical; details: for inhibition at 10 µM / eeAChE % inhibition: at 10 µM concentration, mean ± SD; for IC50: mean ± SD of three independent determinations, ~10 means 50–60% inhibition at 10 µM
T4 construct: Acetylcholinesterase from electric eel and butyrylcholinesterase from equine serum (Sigma Aldrich) were employed; purchased Sigma Aldrich; host or cells: electric eel (natural source)

human huAChE = human huAChE (Homo sapiens, UniProt P22303); test: biochemical; assay type: biochemical
Protocol: The inhibition of human huAChE was also evaluated for five compounds.
as §2

[5] = read-out: eqBChE inhibition class
[6] = mean ± SD, read-out: eqBChE % inhibition
[7] = mean ± SD of three independent determinations, ~10 means 50–60% inhibition at 10 µM

T4 sequence (O42275 24-633): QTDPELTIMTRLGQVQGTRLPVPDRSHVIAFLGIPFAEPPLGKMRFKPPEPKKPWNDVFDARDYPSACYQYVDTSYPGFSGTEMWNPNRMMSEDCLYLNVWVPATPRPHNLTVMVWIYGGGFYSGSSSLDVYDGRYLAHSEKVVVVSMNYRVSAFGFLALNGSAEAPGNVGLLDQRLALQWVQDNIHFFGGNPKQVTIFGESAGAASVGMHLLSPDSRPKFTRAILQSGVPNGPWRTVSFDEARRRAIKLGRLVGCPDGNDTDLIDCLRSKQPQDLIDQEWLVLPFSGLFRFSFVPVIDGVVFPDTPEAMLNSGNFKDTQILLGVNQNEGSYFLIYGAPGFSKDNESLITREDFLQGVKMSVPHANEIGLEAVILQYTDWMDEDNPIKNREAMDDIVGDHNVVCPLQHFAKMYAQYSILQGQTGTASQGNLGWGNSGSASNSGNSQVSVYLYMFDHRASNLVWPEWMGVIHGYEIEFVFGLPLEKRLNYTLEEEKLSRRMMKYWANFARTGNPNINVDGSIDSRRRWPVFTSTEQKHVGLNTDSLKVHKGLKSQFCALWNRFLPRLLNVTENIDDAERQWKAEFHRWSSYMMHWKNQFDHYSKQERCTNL
T3 sequence (P81908 whole entry): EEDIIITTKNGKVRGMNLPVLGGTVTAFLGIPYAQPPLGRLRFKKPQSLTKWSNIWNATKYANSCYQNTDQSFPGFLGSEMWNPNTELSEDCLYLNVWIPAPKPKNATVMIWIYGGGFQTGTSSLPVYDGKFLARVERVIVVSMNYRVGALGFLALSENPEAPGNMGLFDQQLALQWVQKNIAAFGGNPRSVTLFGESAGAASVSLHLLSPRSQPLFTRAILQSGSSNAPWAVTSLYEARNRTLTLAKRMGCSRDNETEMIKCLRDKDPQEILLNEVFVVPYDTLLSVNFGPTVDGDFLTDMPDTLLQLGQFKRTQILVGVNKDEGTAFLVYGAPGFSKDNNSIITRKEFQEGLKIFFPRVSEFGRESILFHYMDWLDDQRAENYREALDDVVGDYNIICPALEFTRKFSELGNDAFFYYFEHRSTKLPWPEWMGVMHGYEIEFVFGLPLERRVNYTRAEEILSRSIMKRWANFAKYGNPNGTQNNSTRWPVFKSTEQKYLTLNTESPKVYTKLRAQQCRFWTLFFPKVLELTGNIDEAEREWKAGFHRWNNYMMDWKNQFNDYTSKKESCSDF
human huAChE, sequence (P22303 32-614): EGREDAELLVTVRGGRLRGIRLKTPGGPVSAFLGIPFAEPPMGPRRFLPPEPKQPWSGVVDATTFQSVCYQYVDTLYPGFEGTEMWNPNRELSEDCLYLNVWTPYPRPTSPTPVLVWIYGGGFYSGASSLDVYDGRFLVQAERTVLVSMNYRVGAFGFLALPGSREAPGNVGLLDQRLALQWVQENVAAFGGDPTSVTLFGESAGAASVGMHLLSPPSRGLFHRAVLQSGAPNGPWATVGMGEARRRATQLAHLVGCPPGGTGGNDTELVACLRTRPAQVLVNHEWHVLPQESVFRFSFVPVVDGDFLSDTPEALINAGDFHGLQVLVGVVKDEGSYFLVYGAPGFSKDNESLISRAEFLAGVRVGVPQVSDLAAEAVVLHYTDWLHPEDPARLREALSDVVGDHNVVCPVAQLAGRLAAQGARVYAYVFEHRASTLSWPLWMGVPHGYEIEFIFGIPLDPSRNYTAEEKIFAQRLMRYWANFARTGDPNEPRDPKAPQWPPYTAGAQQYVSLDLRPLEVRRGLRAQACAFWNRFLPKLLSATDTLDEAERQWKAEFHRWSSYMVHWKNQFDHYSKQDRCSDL

## C#CCN(C)CCCOc1ccc(Cl)cc1Cl [Clorgiline, reference compound]
Human MAO-A [1]
  reversibility of MAO-A inhibition: completely flattened

## CN(C)Cc1c(O)ccc2c(-c3cc4ccccc4oc3=O)cc(=O)oc12 [Compound 2a, 8-((dimethylamino)methyl)-4-(2-oxo-2H-chromen-3-yl)-7-hydroxy-2H-chromen-2-one]
Human MAO-A [2]
  IC50: 8.3 ± 0.36 µM
Human huMAO-B
  inhibition at 10 µM: 36%
[3]
  Log k’w (polycratic capacity factor): 2.11
Horse serum eqBChE; [5]
  inhibition at 10 µM: < 10%
[4]
  solubility at 2 h: 183 µM (≈ 66.5 µg/mL)
[4]; PBS pH 7.4 vs ESOL
  experimental solubility in PBS pH 7.4, times higher than calculated with the ESOL model: two
Electric eel eeAChE
  inhibition at 10 µM: 22%

## COc1cccc2cc(-c3cc(=O)oc4c(CN(C)C)c(O)ccc34)c(=O)oc12 [Compound 2d, 8-((dimethylamino)methyl)-4-(8-methoxy-2-oxo-2H-chromen-3-yl)-7-hydroxy-2H-chromen-2-one]
Human huMAO-B
  inhibition at 10 µM: 28%
[3]
  Log k’w (polycratic capacity factor): 2.32
Horse serum eqBChE; [6]
  inhibition at 10 µM: 25%
[4]
  solubility at 2 h: 196 µM (≈ 77.1 µg/mL)
Electric eel eeAChE
  inhibition at 10 µM: 39%

## CCCN(CCC)Cc1c(O)ccc2c(-c3cc4ccccc4oc3=O)cc(=O)oc12 [Compound 4a]
Human MAO-A [2]
  inhibition at 10 µM: 29%
Human huMAO-B
  inhibition at 10 µM: 33%
Horse serum eqBChE; [6]
  inhibition at 10 µM: 22%
Electric eel eeAChE
  inhibition at 10 µM: 37%

## CCCN(CCC)Cc1c(O)ccc2c(-c3cc4cccc(OC)c4oc3=O)cc(=O)oc12 [Compound 4d, 8-((dipropylamino)methyl)-4-(8-methoxy-2-oxo-2H-chromen-3-yl)-7-hydroxy-2H-chromen-2-one]
Human MAO-A [2]
  inhibition at 10 µM: 29%
Human huMAO-B
  inhibition at 10 µM: 43%
Horse serum eqBChE; [6]
  inhibition at 10 µM: 14%
Human huAChE
  IC50: 0.97 ± 0.2 µM
Electric eel eeAChE
  IC50: < 10 µM and 3.05 µM

## CCCCN(C)Cc1c(O)ccc2c(-c3cc4cc(Cl)ccc4oc3=O)cc(=O)oc12 [Compound 5b]
Human MAO-A [2]; [7]
  IC50: 1.85 ± 0.11 µM
Human huMAO-B; [7]
  IC50: ~10 µM
Human MAO-A [1]; Michaelis–Menten and Lineweaver–Burk plots
  mode of inhibition of MAO-A: competitive
Human MAO-A [1]; human MAO-A, competitive inhibition, read-out: inhibition constant (Ki) MAO-A
  Ki: 0.326 µM
Human MAO-A [1]
  reversibility of MAO-A inhibition: reversible
Horse serum eqBChE; mean ± SD
  eqBChE % inhibition: [17 ± 7] %
Human huAChE; [7]
  IC50: ~10 µM
Electric eel eeAChE
  eeAChE % inhibition: [25 ± 5] %

## CCCCN(C)Cc1c(O)ccc2c(-c3cc4cccc(OC)c4oc3=O)cc(=O)oc12 [Compound 5d, 8-((butyl(methyl)amino)methyl)-4-(8-methoxy-2-oxo-2H-chromen-3-yl)-7-hydroxy-2H-chromen-2-one]
Human MAO-A [2]
  inhibition at 10 µM: 39%
Human huMAO-B
  IC50: ~10 µM
Horse serum eqBChE; [6]
  inhibition at 10 µM: 40%
Electric eel eeAChE
  IC50: < 10 µM and 7.8 µM

## COCCN(CCOC)Cc1c(O)ccc2c(-c3cc4cc(Cl)ccc4oc3=O)cc(=O)oc12 [Compound 6b]
Human MAO-A [2]
  huMAO-A % inhibition: [45 ± 3] %
Human huMAO-B
  huMAO-B % inhibition: [35 ± 9] %
Horse serum eqBChE
  eqBChE inhibition class: i.a. (compounds displaying average % inhibition less than 10% at 10 µM concentration)
Electric eel eeAChE
  eeAChE % inhibition: [16 ± 4] %

## COCCN(CCOC)Cc1c(O)ccc2c(-c3cc4cccc(OC)c4oc3=O)cc(=O)oc12 [Compound 6d, 8-((bis(2-methoxyethyl)amino)methyl)-4-(8-methoxy-2-oxo-2H-chromen-3-yl)-7-hydroxy-2H-chromen-2-one]
Human MAO-A [2]
  inhibition at 10 µM: 26%
Human huMAO-B
  inhibition at 10 µM: 31%
Horse serum eqBChE; [5]
  inhibition at 10 µM: < 10%
Electric eel eeAChE
  inhibition at 10 µM: 20%

## COc1cccc2cc(-c3cc(=O)oc4c(CN(CC(C)C)CC(C)C)c(O)ccc34)c(=O)oc12 [Compound 7d]
Human MAO-A [2]
  huMAO-A % inhibition: [27 ± 3] %
Human huMAO-B
  huMAO-B % inhibition: [31 ± 2] %
Horse serum eqBChE; mean ± SD
  eqBChE % inhibition: [34 ± 3] %
Electric eel eeAChE
  IC50: ~10 µM

## CN(Cc1ccccc1)Cc1c(O)ccc2c(-c3cc4cc(Cl)ccc4oc3=O)cc(=O)oc12 [Compound 8b]
Human MAO-A [2]; [7]
  IC50: ~10 µM
Human huMAO-B
  huMAO-B % inhibition: [38 ± 3] %
Horse serum eqBChE
  eqBChE inhibition class: i.a. (compounds displaying average % inhibition less than 10% at 10 µM concentration)
Electric eel eeAChE
  eeAChE % inhibition: [16 ± 6] %

## COc1cccc2cc(-c3cc(=O)oc4c(CN(C)Cc5ccccc5)c(O)ccc34)c(=O)oc12 [Compound 8d]
Human MAO-A [2]
  huMAO-A % inhibition: [31 ± 4] %
Human huMAO-B
  huMAO-B % inhibition: [42 ± 3] %
Horse serum eqBChE; [7]
  IC50: ~10 µM
Electric eel eeAChE
  IC50: ~10 µM
